# Data taken from patent publication US20250332173A1, “COMPOUNDS AND METHODS FOR MODULATING NUCLEIC ACID SPLICING” (REMIX THERAPEUTICS INC., priority 2021, published 2025).
# pIC50: −log10 of the molar value. Read-outs that look alike come from different tables or passages of the source.
# System: MYB mRNA
# Experiment: RT-qPCR splicing assay, MYB canonical junction (CJ) and alternative junction (AJ) mRNA
# Assay type: cell-based, human
# Conditions: Homo sapiens; for AC50: increase in MYB alternative junction (AJ) mRNA, read-out: MYB AJ AC50
# Summary of the method: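 24 h treatment, 37 °C/5% CO2; A673 or K562; 11-pt 3-fold series, top 10 uM final; DMSO ≤0.25%. Cell lysis with DNase I, then 1-step RT-qPCR. Housekeeping normalization: PPIA (A673), GAPDH or GUSB (K562).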
# [1] = Table 5 panel, canonical junction qPCR, compound concentration having 50% response in CJ decrease, read-out: MYB IC50 (decrease in CJ mRNA levels)
# [2] = decrease in MYB canonical junction (CJ) mRNA, RT-qPCR, read-out: MYB CJ IC50
SMILES,pIC50 [1],pIC50 [2],AC50 (RT-qPCR) [µM]
"Cc1cn2nc(-c3ccc4c(=O)n(C5CCN(C)CC5)cnc4c3)nc2c(C)n1 [Compound 288, 7-{6,8-dimethyl-[1,2,4]triazolo[1,5-a]pyrazin-2-yl}1-3-(1-methylpiperidin-4-yl)quinazolin-4-one]",5.00 to 6.00,5.00 to 6.00,1 to 10
Cc1cc(-c2ccc3c(=O)n(C4CC(C)(C)NC(C)(C)C4)cnc3c2)cc2cn(C)nc12 [Compound 157],5.00 to 6.00,5.00 to 6.00,1 to 10
"CNc1cc(-c2cc(C#N)c3nc(C)cn3c2)cc2ncn(C3CCNCC3)c(=O)c12 [Compound 363, 2-methyl-6-[5-(methylamino)-4-oxo-3-(piperidin-4-yl)quinazolin-7-yl]imidazo[1,2-a]pyridine-8-carbonitrile]",< 5.00,< 5.00,> 10
Cc1cn2cc(-c3ccc4c(=O)n(C5CCNCC5)ccc4c3)cc(F)c2n1 [Compound 276],> 7.00,> 7.00,< 0.1
Cc1cn2cc(-c3ccc4c(=O)n(C5CCNCC5)cnc4c3)cc(C(F)(F)F)c2n1 [Compound 306],5.00 to 6.00,< 5.00,1 to 10
Cn1cc2cc(-c3cc(F)c4c(=O)n(C5CCNCC5)cnc4c3)cc(C#N)c2n1 [Compound 316],> 7.00,> 7.00,< 0.1
Cc1cn2nc(-c3ccc4c(c3)CCN(C3CCN(C)CC3)C4=O)cc(C)c2n1 [Compound 268],5.00 to 6.00,6.00 to 7.00,1 to 10
Cn1cc2cc(-n3cnc4cc(N5CCNCC5)ccc4c3=O)ccc2n1 [Compound 153],5.00 to 6.00,< 5.00,> 10
Cc1cn2cc(-c3ccc4c(=O)n(C5CCN[C@@H](C)C5)cnc4c3)cc(F)c2n1 (stereo partly drawn) [Compound 294],6.00 to 7.00,6.00 to 7.00,0.1 to 1
Cc1cn2cc(-c3ccc4c(=O)n([C@@H]5CCN[C@@H](C)C5)cnc4c3)cc(F)c2n1 [Compound 293],6.00 to 7.00,6.00 to 7.00,0.1 to 1
"Cc1cn2cc(-c3cc(F)c4c(=O)n([C@H]5CCNC[C@@H]5F)cnc4c3)cc(F)c2n1 (relative stereo) [Compound 341, 5-fluoro-7-(8-fluoro-2-methylimidazo[1,2-a]pyridin-6-yl)-3-(trans-3-fluoropiperidin-4-yl)quinazolin-4(3H)-one]",6.00 to 7.00,> 7.00,0.1 to 1
Cn1cc2cc(-c3cc(F)c4c(=O)n(C5CCNCC5)cnc4c3)c(F)cc2n1 [Compound 315],6.00 to 7.00,6.00 to 7.00,0.1 to 1
Cc1cn2nc(-c3ccc4c(=O)n(C5CCN(C)CC5)cnc4c3F)cc(C)c2n1 [Compound 290],6.00 to 7.00,6.00 to 7.00,0.1 to 1
Cc1cn2nc(-c3ccc4c(=O)n(C5CCCNCC5)ncc4c3)cc(C)c2n1 (stereo not drawn) [Compound 283],6.00 to 7.00,6.00 to 7.00,0.1 to 1
Cc1cn2nc(-c3cc(F)c4c(=O)n([C@@H]5CCNC6(CC6)C5)cnc4c3)cc(C)c2n1 [Compound 356],6.00 to 7.00,> 7.00,0.1 to 1
O=c1c2ccc(-c3cn[nH]c3)cc2ncn1C1CCNCC1 [Compound 284],< 5.00,< 5.00,> 10
